In ChEMBL document CHEMBL1141743, “Malyngamides M and N from the Hawaiian Red Alga Gracilaria coronopifolia” (J Nat Prod, 1998):

test: Cytotoxicity against mouse NB cells; format: functional, cell-based

| SMILES | IC50 |
| --- | --- |
| CCCCCCC[C@@H](C/C=C/CCC(=O)N(C)C/C(=C/Cl)[C@]12O[C@H]1CC=C(C)C2=O)OC [MALYNGAMIDE N] | 12 µM |
| CCCCCCC[C@@H](C/C=C/CCC(=O)N(C)C/C(=C/Cl)c1cccc(C)c1O)OC [MALYNGAMIDE M] | > 20 µM |
| CCCCCCC[C@@H](C/C=C/CCC(=O)N(C)C/C(=C/Cl)[C@]12O[C@H]1C[C@@H](OC(C)=O)[C@@H](C)C2=O)OC | 12 µM |
